Literature values, collected in US9854807B2, “Potentiation of fixed coppers and other pesticides containing copper and supplementing plant nutrition” (priority 2014, dated 2018).

Details: terms used by Richardson

For [Cl-].[Cu+2].[Cu+2].[OH-].[OH-].[OH-] [Copper(2) Oxychloride], the solubility in water is listed as “essentially insoluble in water”.
